The results in this text go back to US11649255B2, “Indazoles as hematopoietic progenitor kinase 1 (HPK1) inhibitors and methods using same” (1st Biotherapeutics, Inc., priority 2020, dated 2023).

Read-outs that look alike come from different tables or passages of the source.

In one experiment the target is recombinant human HPK1 (Homo sapiens (Human), UniProt Q92918). As to the kind of experiment: HPK1 kinase assay (ADP-Glo). The format is biochemical. Conditions: 25 μM ATP, MBP substrate. A digest of the protocol: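 Activity was read as ADP formed, detected by ADP-Glo luminescence after the reaction of 5 ng recombinant human HPK1 with MBP and ATP (stocks 0.5 μg/μl and 25 μM) for 40 min at 30 °C. Buffer was Tris pH 7.5 with MgCl2, BSA and DTT, with compound in 0.5% DMSO. IC50 came from inhibition curves.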
recombinant human HPK1, sequence (Q92918 whole entry): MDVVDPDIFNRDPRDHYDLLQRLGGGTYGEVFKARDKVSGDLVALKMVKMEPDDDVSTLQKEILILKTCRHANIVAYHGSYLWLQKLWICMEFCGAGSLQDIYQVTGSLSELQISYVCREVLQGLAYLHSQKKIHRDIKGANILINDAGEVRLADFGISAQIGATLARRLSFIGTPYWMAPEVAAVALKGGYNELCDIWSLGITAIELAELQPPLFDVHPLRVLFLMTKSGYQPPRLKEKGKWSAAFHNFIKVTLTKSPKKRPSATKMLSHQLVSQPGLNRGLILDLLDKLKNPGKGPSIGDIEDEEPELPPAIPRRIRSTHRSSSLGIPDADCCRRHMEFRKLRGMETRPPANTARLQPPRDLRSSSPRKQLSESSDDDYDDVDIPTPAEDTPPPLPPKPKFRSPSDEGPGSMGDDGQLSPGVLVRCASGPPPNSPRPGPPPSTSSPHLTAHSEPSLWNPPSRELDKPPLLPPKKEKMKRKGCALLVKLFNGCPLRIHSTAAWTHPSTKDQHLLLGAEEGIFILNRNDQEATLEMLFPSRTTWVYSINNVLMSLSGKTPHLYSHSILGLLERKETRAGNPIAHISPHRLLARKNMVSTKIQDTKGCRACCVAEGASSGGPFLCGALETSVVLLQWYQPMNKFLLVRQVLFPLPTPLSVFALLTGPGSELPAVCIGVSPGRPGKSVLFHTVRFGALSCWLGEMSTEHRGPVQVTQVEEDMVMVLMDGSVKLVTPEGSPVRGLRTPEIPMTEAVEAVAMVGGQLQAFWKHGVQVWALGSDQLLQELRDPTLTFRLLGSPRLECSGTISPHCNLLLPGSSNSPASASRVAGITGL
(In ADP-Glo the light output rises with the ADP produced.)

Experiment [1] relates to human peripheral blood pan T cells. As to the kind of experiment: IFNγ and IL-2 analysis of human peripheral pan T cells. Format: cell-based. The settings on record: T-cell, CD3/CD28 bead stimulation, 100 nM Prostaglandin E2, 24 hr. Summed up:
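Human peripheral blood pan T cells (8×10^4) were preincubated 1 h with compounds plus 100 nM PGE2. They were then activated with anti-CD3/CD28 Dynabeads at a 1:3 cell:bead ratio. IFNγ and IL-2 were measured on a Meso Scale Discovery platform.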

Where [2] appears, read: IFNγ secretion, read-out: IFNγ (EC50).
[3] abbreviates: IL-2 secretion, read-out: IL-2 (EC50).

What is called IC50 is the concentration that gives 50% inhibition. By EC50 is commonly meant the concentration needed to bring the measured effect to its halfway point.

As for `CCNc1c(F)c(CC)c(-c2ccn3nc(NC(=O)[C@@H]4C[C@@H]4F)cc3c2)c2cn[nH]c12` [Example 524, (1S,2S)-N-(5-(5-ethyl-7-(ethylamino)-6-fluoro-1H-indazol-4-yl)pyrazolo[1,5-a]pyridin-2-yl)-2-fluorocyclopropane-1-carboxamide], the 50% inhibitory concentration (IC50) at recombinant human HPK1 is less than 100 nM. The EC50 in experiment [1] (setting [2]) and in experiment [1] (setting [3]) was less than 200 nM in each case.

Regarding `CCOc1c(F)c(SC)c(-c2ccc3nc(NC(=O)[C@@H]4C[C@@H]4F)sc3n2)c2cn[nH]c12` [Example 184, (1S,2S)-N-(5-(7-ethoxy-6-fluoro-5-(methylthio)-1H-indazol-4-yl)thiazolo[5,4-b]pyridin-2-yl)-2-fluorocyclopropane-1-carboxamide], the half-maximal inhibitory concentration (IC50) at recombinant human HPK1 was less than 100 nM. Also, the 50% effective concentration (EC50) in experiment [1] (setting [2]) was less than 200 nM.

Consider `Cc1c(F)c(C(=O)N(C)C)c2[nH]ncc2c1-c1ccc2nc(NC(=O)[C@@H]3C[C@@H]3F)cn2c1` [Example 329, 6-fluoro-4-(2-((1S,2S)-2-fluorocyclopropane-1-carboxamido)imidazo[1,2-a]pyridin-6-yl)-N,N,5-trimethyl-1H-indazole-7-carboxamide], for which, on recombinant human HPK1, the IC50 was less than 100 nM. Further, the EC50 in experiment [1] (setting [2]) and in experiment [1] (setting [3]) was 200 to 1000 nM throughout.

With `CN(c1c(F)c(Cl)c(-c2ccn3nc(NC(=O)[C@@H]4C[C@@H]4F)cc3c2)c2cn[nH]c12)C1CCC(O)CC1` (stereo partly drawn) [Example 503, (1S,2S)-N-(5-(5-chloro-6-fluoro-7-((4-hydroxycyclohexyl)(methyl)amino)-1H-indazol-4-yl)pyrazolo[1,5-a]pyridin-2-yl)-2-fluorocyclopropane-1-carboxamide], the IC50 at recombinant human HPK1 is less than 100 nM. Also, in experiment [1] (setting [2]), the EC50 was in the range of 200 to 1000 nM.

Turning to `CCc1c(F)c(SCC#N)c2[nH]ncc2c1-c1ccn2nc(NC(=O)[C@@H]3C[C@@H]3F)cc2c1` [Example 588, (1S,2S)-N-(5-(7-((cyanomethyl)thio)-5-ethyl-6-fluoro-1H-indazol-4-yl)pyrazolo[1,5-a]pyridin-2-yl)-2-fluorocyclopropane-1-carboxamide], the concentration for half-maximal inhibition (IC50) on recombinant human HPK1 was less than 100 nM. Also, the EC50 in experiment [1] (setting [2]) and in experiment [1] (setting [3]) was less than 200 nM each time.

On to `CN(c1c(F)c(Cl)c(-c2ccn3nc(NC(=O)[C@@H]4C[C@@H]4F)cc3c2)c2cn[nH]c12)C1CC(O)C1` (stereo partly drawn) [Example 561, (1S,2S)-N-(5-(5-chloro-6-fluoro-7-((3-hydroxycyclobutyl)(methyl)amino)-1H-indazol-4-yl)pyrazolo[1,5-a]pyridin-2-yl)-2-fluorocyclopropane-1-carboxamide], for which the 50% inhibitory concentration (IC50) on recombinant human HPK1 was less than 100 nM. Further, the EC50 in experiment [1] (setting [2]) and in experiment [1] (setting [3]) was 200 to 1000 nM each time.

With `CCOc1c(F)c(CC)c(-c2ccc3nc(NC(=O)[C@@H]4C[C@@H]4F)sc3c2)c2cn[nH]c12` [Example 107, (1S,2S)-N-(6-(7-ethoxy-5-ethyl-6-fluoro-1H-indazol-4-yl)benzo[d]thiazol-2-yl)-2-fluorocyclopropane-1-carboxamide], the 50% inhibitory concentration (IC50) on recombinant human HPK1 is less than 100 nM. In experiment [1] (setting [2]), the EC50 fell in the range of 200 to 1000 nM.

Regarding `Cc1c(F)c(C(=O)N(C)C)c2[nH]ncc2c1-c1ccc2nc(NC(=O)[C@@H]3C[C@@H]3F)sc2c1` [Example 134, 6-fluoro-4-(2-((1S,2S)-2-fluorocyclopropane-1-carboxamido)benzo[d]thiazol-6-yl)-N,N,5-trimethyl-1H-indazole-7-carboxamide], the IC50 at recombinant human HPK1 was less than 100 nM. The concentration for a half-maximal effect (EC50) in experiment [1] (setting [2]) was less than 200 nM; in experiment [1] (setting [3]), more than 1000 nM.

Consider `CCc1c(F)c(N(C)CC)c2[nH]ncc2c1-c1ccn2nc(NC(=O)[C@@H]3C[C@@H]3F)cc2c1` [Example 525, (1S,2S)-N-(5-(5-ethyl-7-(ethyl(methyl)amino)-6-fluoro-1H-indazol-4-yl)pyrazolo[1,5-a]pyridin-2-yl)-2-fluorocyclopropane-1-carboxamide], for which, on recombinant human HPK1, the half-maximal inhibitory concentration (IC50) is less than 100 nM. Besides, the concentration for a half-maximal effect (EC50) was less than 200 nM in experiment [1] (setting [2]) and 200 to 1000 nM in experiment [1] (setting [3]).

`CCc1c(F)c(SCC(=O)NC)c2[nH]ncc2c1-c1ccc2nc(NC(=O)[C@@H]3C[C@@H]3F)sc2n1` [Example 167, (1S,2S)-N-(5-(5-ethyl-6-fluoro-7-((2-(methylamino)-2-oxoethyl)thio)-1H-indazol-4-yl)thiazolo[5,4-b]pyridin-2-yl)-2-fluorocyclopropane-1-carboxamide]: the IC50 at recombinant human HPK1 was less than 100 nM. Also, the concentration for a half-maximal effect (EC50) in experiment [1] (setting [2]) is 200 to 1000 nM; in experiment [1] (setting [3]), more than 1000 nM.

For `CN(C)c1c(F)c(Cl)c(-c2ccc3nc(NC(=O)C4CC4)cn3c2)c2cn[nH]c12` [Example 327, N-(6-(5-chloro-7-(dimethylamino)-6-fluoro-1H-indazol-4-yl)imidazo[1,2-a]pyridin-2-yl)cyclopropanecarboxamide], the half-inhibitory concentration (IC50) on recombinant human HPK1 was less than 100 nM. The results for the EC50 in experiment [1] (setting [2]) and in experiment [1] (setting [3]) were less than 200 nM and 200 to 1000 nM, respectively.

For `CN(C)c1c(F)c(Cl)c(-c2ccc3nc(NC(=O)[C@H]4C[C@H]4F)cn3c2)c2cn[nH]c12` [Example 334, (1R,2R)-N-(6-(5-chloro-7-(dimethylamino)-6-fluoro-1H-indazol-4-yl)imidazo[1,2-a]pyridin-2-yl)-2-fluorocyclopropane-1-carboxamide], the IC50 on recombinant human HPK1 is less than 100 nM. The EC50 in experiment [1] (setting [2]) and in experiment [1] (setting [3]) was 200 to 1000 nM throughout.

On to `CCc1c(F)c(N(C)C)c2[nH]ncc2c1-c1ccc2nc(NC(=O)[C@@H]3C[C@@H]3F)cn2c1` [Example 291, (1S,2S)-N-(6-(7-(dimethylamino)-5-ethyl-6-fluoro-1H-indazol-4-yl)imidazo[1,2-a]pyridin-2-yl)-2-fluorocyclopropane-1-carboxamide], for which the IC50 on recombinant human HPK1 is less than 100 nM. Also, the values for the EC50 in experiment [1] (setting [2]) and in experiment [1] (setting [3]) were less than 200 nM and 200 to 1000 nM, respectively.

Turning to `CN(C)c1c(F)c(Cl)c(-c2ccc3nc(NC(=O)[C@H]4C[C@@H]4F)cn3c2)c2cn[nH]c12` [Example 332, (1R,2S)-N-(6-(5-chloro-7-(dimethylamino)-6-fluoro-1H-indazol-4-yl)imidazo[1,2-a]pyridin-2-yl)-2-fluorocyclopropane-1-carboxamide], the 50% inhibitory concentration (IC50) on recombinant human HPK1 was less than 100 nM. Moreover, the EC50 in experiment [1] (setting [2]) and in experiment [1] (setting [3]) was 200 to 1000 nM in each case.

On to `CSc1c(F)c(SC)c2[nH]ncc2c1-c1ccn2nc(NC(=O)[C@@H]3C[C@@H]3F)cc2c1` [Example 529, (1S,2S)-2-fluoro-N-(5-(6-fluoro-5,7-bis(methylthio)-1H-indazol-4-yl)pyrazolo[1,5-a]pyridin-2-yl)cyclopropane-1-carboxamide], for which, on recombinant human HPK1, the IC50 was less than 100 nM. The concentration for a half-maximal effect (EC50) in experiment [1] (setting [2]) and in experiment [1] (setting [3]) was less than 200 nM each time.

In the case of `CN(C)c1c(F)c(C(F)(F)F)c(-c2ccn3nc(NC(=O)[C@@H]4C[C@@H]4F)cc3c2)c2cn[nH]c12` [Example 565, (1S,2S)-N-(5-(7-(dimethylamino)-6-fluoro-5-(trifluoromethyl)-1H-indazol-4-yl)pyrazolo[1,5-a]pyridin-2-yl)-2-fluorocyclopropane-1-carboxamide], the IC50 at recombinant human HPK1 was less than 100 nM. For the same compound, the EC50 in experiment [1] (setting [2]) and in experiment [1] (setting [3]) was 200 to 1000 nM in each case.

In the case of `CC(=O)N(C)c1c(F)c(Cl)c(-c2ccc3nc(NC(=O)[C@@H]4C[C@@H]4F)cn3c2)c2cn[nH]c12` [Example 316, (1S,2S)-N-(6-(5-chloro-6-fluoro-7-(N-methylacetamido)-1H-indazol-4-yl)imidazo[1,2-a]pyridin-2-yl)-2-fluorocyclopropane-1-carboxamide], at recombinant human HPK1, the concentration for half-maximal inhibition (IC50) was less than 100 nM. Moreover, the EC50 in experiment [1] (setting [2]) was 200 to 1000 nM; in experiment [1] (setting [3]), more than 1000 nM.

For the compound `CCOc1c(F)c(SC)c(-c2ccc3nc(NC(=O)[C@@H]4C[C@@H]4F)sc3c2)c2cn[nH]c12` [Example 118, (1S,2S)-N-(6-(7-ethoxy-6-fluoro-5-(methylthio)-1H-indazol-4-yl)benzo[d]thiazol-2-yl)-2-fluorocyclopropane-1-carboxamide], on recombinant human HPK1, the half-maximal inhibitory concentration (IC50) was less than 100 nM. In experiment [1] (setting [2]), the EC50 was less than 200 nM.

Turning to `CCN(C)c1c(F)c(C)c(-c2ccn3nc(NC(=O)[C@@H]4C[C@@H]4F)cc3c2)c2cn[nH]c12` [Example 563, (1S,2S)-N-(5-(7-(ethyl(methyl)amino)-6-fluoro-5-methyl-1H-indazol-4-yl)pyrazolo[1,5-a]pyridin-2-yl)-2-fluorocyclopropane-1-carboxamide], the IC50 on recombinant human HPK1 was less than 100 nM. The half-maximal effective concentration (EC50) in experiment [1] (setting [2]) and in experiment [1] (setting [3]) was 200 to 1000 nM throughout.

On to `CN(C)c1c(F)c(Cl)c(-c2ccc3nc(NC(=O)[C@@H]4C[C@@H]4F)sc3n2)c2cn[nH]c12` [Example 172, (1S,2S)-N-(5-(5-chloro-7-(dimethylamino)-6-fluoro-1H-indazol-4-yl)thiazolo[5,4-b]pyridin-2-yl)-2-fluorocyclopropane-1-carboxamide], for which the half-maximal inhibitory concentration (IC50) on recombinant human HPK1 was less than 100 nM. In experiment [1] (setting [2]), the EC50 was 200 to 1000 nM.

Regarding `CN(C)C(=O)c1c(F)c(Cl)c(-c2ccc3nc(NC(=O)[C@@H]4C[C@@H]4F)sc3n2)c2cn[nH]c12` [Example 193, 5-chloro-6-fluoro-4-(2-((1S,2S)-2-fluorocyclopropane-1-carboxamido)thiazolo[5,4-b]pyridin-5-yl)-N,N-dimethyl-1H-indazole-7-carboxamide], the half-inhibitory concentration (IC50) on recombinant human HPK1 is less than 100 nM. Further, the concentration for a half-maximal effect (EC50) in experiment [1] (setting [2]) is 200 to 1000 nM; in experiment [1] (setting [3]), more than 1000 nM.

Regarding `CN(C)c1c(F)c(Cl)c(-c2ccc3nc(NC(=O)[C@@H]4C[C@@H]4F)cn3c2)c2cn[nH]c12` [Example 258, (1S,2S)—N-(6-(5-chloro-7-(dimethylamino)-6-fluoro-1H-indazol-4-yl)imidazo[1,2-a]pyridin-2-yl)-2-fluorocyclopropane-1-carboxamide], on recombinant human HPK1, the IC50 was less than 100 nM. Moreover, the half-maximal effective concentration (EC50) in experiment [1] (setting [2]) is less than 200 nM; in experiment [1] (setting [3]) it was 200 to 1000 nM.
